PubChem BioAssay AID2060484 (Molecular Pharmacology Branch, DTP, NCI, 2025)

Tested on: SUM149PT spheroids with HUVEC/MSC, viability
Test: Anticancer human tumor SUM149PT cell line growth inhibition [GQUAD];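 also: spheroids exposed to drugs for seven days before readout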;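 as to viability, T/C: percent viability relative to DMSO vehicle control taken as 100%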
Conditions: for IC50: curve of first compound; for viability, T/C: stronger effect = lower value
In short: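 Viability of tumor cells grown as complex spheroids with endothelial and stromal cells, exposed to drug combinations. Top concentration at or near clinical Cmax (else 10 microM), diluted in half-log increments.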

[1] = second compound 0.0316 µM, first compound 0.0316 µM
[2] = second compound 0.0316 µM, first compound 0.1 µM
[3] = second compound 0.0316 µM, first compound 0.316 µM
[4] = second compound 0.0316 µM, first compound 1 µM
[5] = second compound 0.0316 µM, first compound 3.16 µM
[6] = second compound 0.0316 µM, first compound 10 µM
[7] = second compound 0.1 µM, first compound 0.0316 µM
[8] = second compound 0.1 µM, first compound 0.1 µM
[9] = second compound 0.1 µM, first compound 0.316 µM
[10] = second compound 0.1 µM, first compound 1 µM
[11] = second compound 0.1 µM, first compound 3.16 µM
[12] = second compound 0.1 µM, first compound 10 µM
[13] = second compound 0.316 µM, first compound 0.0316 µM
[14] = second compound 0.316 µM, first compound 0.1 µM
[15] = second compound 0.316 µM, first compound 0.316 µM
[16] = second compound 0.316 µM, first compound 1 µM
[17] = second compound 0.316 µM, first compound 3.16 µM
[18] = second compound 0.316 µM, first compound 10 µM
[19] = second compound 1 µM, first compound 0.0316 µM
[20] = second compound 1 µM, first compound 0.1 µM
[21] = second compound 1 µM, first compound 0.316 µM
[22] = second compound 1 µM, first compound 1 µM
[23] = second compound 1 µM, first compound 3.16 µM
[24] = second compound 1 µM, first compound 10 µM
[25] = second compound 3.16 µM, first compound 0.0316 µM
[26] = second compound 3.16 µM, first compound 0.1 µM
[27] = second compound 3.16 µM, first compound 0.316 µM
[28] = second compound 3.16 µM, first compound 1 µM
[29] = second compound 3.16 µM, first compound 3.16 µM
[30] = second compound 3.16 µM, first compound 10 µM
[31] = second compound 10 µM, first compound 0.0316 µM
[32] = second compound 10 µM, first compound 0.1 µM
[33] = second compound 10 µM, first compound 0.316 µM
[34] = second compound 10 µM, first compound 1 µM
[35] = second compound 10 µM, first compound 3.16 µM
[36] = second compound 10 µM, first compound 10 µM

`CC(=O)O[C@H]1C(=O)[C@@]2(C)[C@H]([C@H](OC(=O)c3ccccc3)[C@]3(O)C[C@H](OC(=O)[C@H](O)[C@@H](NC(=O)c4ccccc4)c4ccccc4)C(C)=C1C3(C)C)[C@]1(OC(C)=O)CO[C@@H]1C[C@@H]2O` + Cc1[nH]c2ccc(F)cc2c1-c1nc2c3cccnc3c3ncccc3c2[nH]1 was tested, and the IC50 (second compound 0.0316 µM) was under 31.6 nM, the IC50 (second compound 0.1 µM) was under 31.6 nM and the IC50 (second compound 0.316 µM) was under 31.6 nM. It also gave an IC50 (second compound 1 µM) of under 31.6 nM, an IC50 (second compound 3.16 µM) of under 31.6 nM and an IC50 (second compound 10 µM) of under 31.6 nM. It also gave a viability, T/C [1] of 31.7%, a viability, T/C [2] of 25.7% and a viability, T/C [3] of 21.3%. For the same compound, the viability, T/C [4] was 19.2%, the viability, T/C [5] was 19% and the viability, T/C [6] was 23.1%. For the same compound, the viability, T/C [7] was 34.9%, the viability, T/C [8] was 24.9% and the viability, T/C [9] was 22.7%. It also gave a viability, T/C [10] of 19.7%, a viability, T/C [11] of 19.3% and a viability, T/C [12] of 25.8%. The viability, T/C [13] was 32.2%, the viability, T/C [14] was 25.7% and the viability, T/C [15] was 24.2%. It also gave a viability, T/C [16] of 18.9%, a viability, T/C [17] of 20.8% and a viability, T/C [18] of 26.5%. The viability, T/C [19] was 30.2%, the viability, T/C [20] was 27.2% and the viability, T/C [21] was 23.1%. It also gave a viability, T/C [22] of 17.3%, a viability, T/C [23] of 21.5% and a viability, T/C [24] of 26.6%. It also gave a viability, T/C [25] of 29.8%, a viability, T/C [26] of 28.6% and a viability, T/C [27] of 21.5%. It also gave a viability, T/C [28] of 18%, a viability, T/C [29] of 20.5% and a viability, T/C [30] of 22.9%. It also gave a viability, T/C [31] of 28.5%, a viability, T/C [32] of 24.9% and a viability, T/C [33] of 20.2%. The viability, T/C [34] was 20.7%, the viability, T/C [35] was 22.3% and the viability, T/C [36] was 23.1%.

`Cc1[nH]c2ccccc2c1CCNCc1ccc(/C=C/C(=O)NO)cc1` + Cc1[nH]c2ccc(F)cc2c1-c1nc2c3cccnc3c3ncccc3c2[nH]1 showed an IC50 (second compound 0.0316 µM) of 260 nM, an IC50 (second compound 0.1 µM) of over 316 nM and an IC50 (second compound 0.316 µM) of 299 nM. For the same compound, the IC50 (second compound 1 µM) was 304 nM, the IC50 (second compound 3.16 µM) was 308 nM and the IC50 (second compound 10 µM) was 250 nM. It also gave a viability, T/C (second compound 0.0316 µM, first compound 0.000999 µM) of 98%, a viability, T/C (second compound 0.0316 µM, first compound 0.00316 µM) of 99.6% and a viability, T/C (second compound 0.0316 µM, first compound 0.00999 µM) of 103%. It also gave a viability, T/C [1] of 102%, a viability, T/C (second compound 0.0316 µM, first compound 0.0999 µM) of 98% and a viability, T/C [3] of 40.3%. It also gave a viability, T/C (second compound 0.1 µM, first compound 0.000999 µM) of 101%, a viability, T/C (second compound 0.1 µM, first compound 0.00316 µM) of 97.5% and a viability, T/C (second compound 0.1 µM, first compound 0.00999 µM) of 97.6%. It also gave a viability, T/C [7] of 97.2%, a viability, T/C (second compound 0.1 µM, first compound 0.0999 µM) of 90.6% and a viability, T/C [9] of 50.3%. For the same compound, the viability, T/C (second compound 0.316 µM, first compound 0.000999 µM) was 108%, the viability, T/C (second compound 0.316 µM, first compound 0.00316 µM) was 107% and the viability, T/C (second compound 0.316 µM, first compound 0.00999 µM) was 98%. The viability, T/C [13] was 106%, the viability, T/C (second compound 0.316 µM, first compound 0.0999 µM) was 87.6% and the viability, T/C [15] was 47.8%. It also gave a viability, T/C (second compound 1 µM, first compound 0.000999 µM) of 106%, a viability, T/C (second compound 1 µM, first compound 0.00316 µM) of 96.6% and a viability, T/C (second compound 1 µM, first compound 0.00999 µM) of 93.6%. It also gave a viability, T/C [19] of 105%, a viability, T/C (second compound 1 µM, first compound 0.0999 µM) of 97.4% and a viability, T/C [21] of 48.3%. The viability, T/C (second compound 3.16 µM, first compound 0.000999 µM) was 96.8%, the viability, T/C (second compound 3.16 µM, first compound 0.00316 µM) was 89.4% and the viability, T/C (second compound 3.16 µM, first compound 0.00999 µM) was 81.4%. It also gave a viability, T/C [25] of 93.3%, a viability, T/C (second compound 3.16 µM, first compound 0.0999 µM) of 89.4% and a viability, T/C [27] of 49.1%. For the same compound, the viability, T/C (second compound 10 µM, first compound 0.000999 µM) was 99.1%, the viability, T/C (second compound 10 µM, first compound 0.00316 µM) was 88% and the viability, T/C (second compound 10 µM, first compound 0.00999 µM) was 89.4%. For the same compound, the viability, T/C [31] was 88.5%, the viability, T/C (second compound 10 µM, first compound 0.0999 µM) was 82.2% and the viability, T/C [33] was 41.4%.

`O=C(NO)c1cnc(N2CCN(S(=O)(=O)c3ccc4ccccc4c3)CC2)nc1` + Cc1[nH]c2ccc(F)cc2c1-c1nc2c3cccnc3c3ncccc3c2[nH]1 showed an IC50 (second compound 0.0316 µM) of 381 nM, an IC50 (second compound 0.1 µM) of 450 nM and an IC50 (second compound 0.316 µM) of 539 nM. It also gave an IC50 (second compound 1 µM) of 617 nM, an IC50 (second compound 3.16 µM) of 660 nM and an IC50 (second compound 10 µM) of 801 nM. For the same compound, the viability, T/C [1] was 100%, the viability, T/C [2] was 97.1% and the viability, T/C [3] was 59.4%. The viability, T/C [4] was 1.37%, the viability, T/C [5] was 0.22% and the viability, T/C [6] was 2.18%. It also gave a viability, T/C [7] of 102%, a viability, T/C [8] of 102% and a viability, T/C [9] of 67.8%. For the same compound, the viability, T/C [10] was 9.4%, the viability, T/C [11] was 0.18% and the viability, T/C [12] was 0.21%. It also gave a viability, T/C [13] of 104%, a viability, T/C [14] of 101% and a viability, T/C [15] of 78%. The viability, T/C [16] was 17.8%, the viability, T/C [17] was 0.15% and the viability, T/C [18] was 1.25%. For the same compound, the viability, T/C [19] was 105%, the viability, T/C [20] was 98.1% and the viability, T/C [21] was 78.8%. It also gave a viability, T/C [22] of 30.1%, a viability, T/C [23] of 0.16% and a viability, T/C [24] of 0.2%. It also gave a viability, T/C [25] of 107%, a viability, T/C [26] of 101% and a viability, T/C [27] of 74.2%. It also gave a viability, T/C [28] of 38.8%, a viability, T/C [29] of 0.2% and a viability, T/C [30] of 0.4%. It also gave a viability, T/C [31] of 106%, a viability, T/C [32] of 93.5% and a viability, T/C [33] of 79.4%. It also gave a viability, T/C [34] of 47.4%, a viability, T/C [35] of 0.29% and a viability, T/C [36] of 0.25%.
